The text below walks through data of patent publication US20250171462A1 (NICO Therapeutics, Inc., priority 2022, published 2025).

In the assay the target is T1, full-length SARM1 (FL-SARM1) (Homo sapiens, UniProt Q6SZW1).
T1 sequence (Q6SZW1 28-724): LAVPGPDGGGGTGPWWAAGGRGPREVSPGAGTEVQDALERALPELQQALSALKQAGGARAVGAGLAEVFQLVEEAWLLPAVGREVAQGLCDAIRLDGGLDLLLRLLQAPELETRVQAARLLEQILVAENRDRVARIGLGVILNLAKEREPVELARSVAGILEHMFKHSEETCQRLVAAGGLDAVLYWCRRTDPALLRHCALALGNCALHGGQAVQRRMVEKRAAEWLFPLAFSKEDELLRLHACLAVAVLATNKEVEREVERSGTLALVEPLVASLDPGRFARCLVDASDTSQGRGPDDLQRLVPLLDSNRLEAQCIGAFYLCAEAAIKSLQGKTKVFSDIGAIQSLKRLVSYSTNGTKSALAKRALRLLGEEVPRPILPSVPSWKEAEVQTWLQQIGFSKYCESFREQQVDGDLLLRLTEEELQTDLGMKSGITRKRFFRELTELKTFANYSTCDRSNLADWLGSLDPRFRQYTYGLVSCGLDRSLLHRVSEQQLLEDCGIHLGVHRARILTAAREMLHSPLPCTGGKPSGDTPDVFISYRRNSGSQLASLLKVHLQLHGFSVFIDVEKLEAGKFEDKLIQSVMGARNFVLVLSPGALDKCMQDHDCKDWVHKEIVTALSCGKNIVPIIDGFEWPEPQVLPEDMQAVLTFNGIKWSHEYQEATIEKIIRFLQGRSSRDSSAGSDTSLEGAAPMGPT
Briefly: FL-SARM1 cellular lysate assay (NAD/NADH-Glo detection of remaining NAD+, NMN-activated).

Setting [1] is: Activity (μM) (IC50), 11 point curve.
[2] abbreviates: read-out: Activity (IC50 class), 11 point curve.
[3] abbreviates: Activity (IC50 class), 11 point curve.

Each structure is given as a SMILES string. Where two headings read alike, the source gives them in different places.

Regarding `Cc1cc(F)c(NC(=O)N2C3C[C@@H](C)C[C@H]2C3)cc1-c1ncc(F)cn1` [Example 254, cis-N-[2-fluoro-5-(5-fluoropyrimidin-2-yl)-4-methylphenyl]-3-methyl-6-azabicyclo[3.1.1]heptane-6-carboxamide], the IC50 was 0.02 µM under setting [1] and 0.0001 to 1 µM under setting [2].
Regarding `COC(=O)N1C[C@@H]2C[C@H]1CN2C(=O)Nc1ccc(C)c(-c2ccccn2)c1` [Example 1, (1S,4S)-Methyl 5-((4-methyl-3-(pyridin-2-yl)phenyl)carbamoyl)-2,5-diazabicyclo[2.2.1]heptane-2-carboxylate], the IC50 is, setting by setting: under setting [3], > 10 µM; under setting [1], 23 µM.
The matching figures for `Cc1ccc(NC(=O)C2[C@@H]3CC[C@@]2(c2ccnn2C)C3)cc1-c1ncc(F)cn1` (single isomer, unassigned) [Example 203, N-[3-(5-fluoropyrimidin-2-yl)-4-methylphenyl]-1-(2-methylpyrazol-3-yl)bicyclo[2.1.1]hexane-5-carboxamide]: > 10 µM and > 50 µM.
Turning to `Cc1cccc(-c2cc(NC(=O)[C@@H]3CC3(F)F)ccc2C)n1` [Example 163, (1S)-2,2-difluoro-N-[4-methyl-3-(6-methylpyridin-2-yl)phenyl]cyclopropane-1-carboxamide], the IC50 is, setting by setting: under setting [3], > 10 µM; under setting [1], 26 µM.
The matching figures for `Cc1ccc(NC(=O)[C@H]2C[C@@H](OC(F)(F)F)C2)cc1-c1ccccn1` [Example 136, cis-N-(4-methyl-3-pyridin-2-ylphenyl)-3-(trifluoromethoxy)cyclobutane-1-carboxamide]: 1 to 10 µM and 6.4 µM.
Turning to `COC(=O)C12CCCC(C1)N2C(=O)Nc1ccc(C)c(-c2ccccn2)c1` (stereo not shown) [Example 9, Methyl 6-[[4-methyl-3-(2-pyridyl)phenyl]carbamoyl]-6-azabicyclo[3.1.1]heptane-1-carboxylate], the IC50 reads like this: under setting [1], 0.1 µM; under setting [2], 0.0001 to 1 µM.
In the case of `CO[C@@H]1CCCCN(C(=O)Nc2ccc(C(F)(F)F)c(-c3ncc(F)cn3)c2)C1` [Example 308, (R)-N-(3-(5-fluoropyrimidin-2-yl)-4-(trifluoromethyl)phenyl)-3-methoxyazepane-1-carboxamide], the IC50 is > 10 µM under setting [3] and 32 µM under setting [1].
Consider `Cc1cc(F)c(NC(=O)N2[C@@H]3C[C@@H](C)C[C@H]2C3)cc1-c1ccccn1` [Example 255, cis-N-(2-fluoro-4-methyl-5-pyridin-2-ylphenyl)-3-methyl-6-azabicyclo[3.1.1]heptane-6-carboxamide], for which the IC50 by setting is: under setting [1], 0.02 µM; under setting [2], 0.0001 to 1 µM.
Regarding `Cc1ccc(NC(=O)C2COC(C)(C)CN2c2ncccn2)cc1-c1ncccn1` (single isomer, unassigned) [Example 207, 6,6-dimethyl-N-(4-methyl-3-(pyrimidin-2-yl)phenyl)-4-(pyrimidin-2-yl)morpholine-3-carboxamide], the IC50 is, setting by setting: under setting [3], > 10 µM; under setting [1], > 50 µM.
On to `CCc1ccnc(-c2cc(NC(=O)N3C4C[C@@H](C)C[C@H]3C4)ccc2C)n1` [Example 237, cis-N-[3-(4-ethylpyrimidin-2-yl)-4-methylphenyl]-3-methyl-6-azabicyclo[3.1.1]heptane-6-carboxamide], for which the half-inhibitory concentration (IC50) is 1 to 10 µM under setting [3] and 1.1 µM under setting [1].
Take `Cc1ccc(NC(=O)N2C[C@@H]3CCC[C@@H]32)cc1-c1ncc(F)cn1` (racemic) [Example 222, N-[3-(5-fluoropyrimidin-2-yl)-4-methylphenyl]-6-azabicyclo[3.2.0]heptane-6-carboxamide]: the IC50 was 1 to 10 µM under setting [3] and 3.4 µM under setting [1].
`Cc1ccc(NC(=O)N2C3C[C@@H](C)C[C@H]2C3)cc1-c1cc(F)ccn1` [Example 224, cis-N-[3-(4-fluoropyridin-2-yl)-4-methylphenyl]-3-methyl-6-azabicyclo[3.1.1]heptane-6-carboxamide]: inhibition under setting [1] was half-maximal at 0.04 µM (IC50) and the IC50 under setting [2] is 0.0001 to 1 µM.
Consider `Cc1ccc(NC(=O)[C@@H]2C[C@@H]2c2ccccc2)cc1-c1cccnn1` [Example 299, (1R,2S)-N-(4-methyl-3-pyridazin-3-ylphenyl)-2-phenylcyclopropane-1-carboxamide], for which the IC50 was > 10 µM under setting [3] and 14 µM under setting [1].
The matching figures for `Cc1ccc(NC(=O)C2C[C@H]3C[C@@H]23)cc1-c1ccccn1` (stereo partly drawn) [Example 117, cis-N-(4-methyl-3-pyridin-2-ylphenyl)bicyclo[2.1.0]pentane-2-carboxamide]: 1 to 10 µM and 4.6 µM.
On the same counts, the results for `Cc1ccc(NC(=O)CN2C(=O)CCOc3ccccc32)cc1-c1ccccn1` [Example 134, N-(4-methyl-3-pyridin-2-ylphenyl)-2-(4-oxo-2,3-dihydro-1,5-benzoxazepin-5-yl)acetamide] are 1 to 10 µM and 1.9 µM.
On the same counts, the results for `O=C(Nc1ccc(C(F)(F)F)c(-c2ccc(F)cn2)c1)N1C2CCCC1C2` [Example 56, N-(3-(5-fluoropyridin-2-yl)-4-(trifluoromethyl)phenyl)-6-azabicyclo[3.1.1]heptane-6-carboxamide] are 1 to 10 µM and 2.2 µM.
In the case of `Cc1ccc(NC(=O)N2CCC3CC3CC2)cc1-c1ncc(F)cn1` (stereo not shown) [Example 300, N-(3-(5-fluoropyrimidin-2-yl)-4-methylphenyl)-4-azabicyclo[5.1.0]octane-4-carboxamide], the IC50 under setting [3] is 1 to 10 µM and the 50% inhibitory concentration (IC50) under setting [1] was 1.2 µM.
The matching figures for `Cc1c(-c2ncc(F)cn2)cc(NC(=O)N2C3CCCC2C3)c(F)c1F` [Example 250, N-[2,3-difluoro-5-(5-fluoropyrimidin-2-yl)-4-methylphenyl]-6-azabicyclo[3.1.1]heptane-6-carboxamide]: 1 to 10 µM and 1.5 µM.
With `C[C@H]1CC1c1ccc(NC(=O)[C@@H]2CC2(F)F)cc1-c1ccccn1` (stereo partly drawn) [Example 127, (1S)-2,2-difluoro-N-[4-[trans-2-methylcyclopropyl]-3-pyridin-2-ylphenyl]cyclopropane-1-carboxamide], the IC50 by setting is: under setting [3], 1 to 10 µM; under setting [1], 5.6 µM.
Consider `N#CCc1ccc(NC(=O)N2C3CCCC2C3)cc1-c1ccccn1` [Example 19, N-(4-(cyanomethyl)-3-(pyridin-2-yl)phenyl)-6-azabicyclo[3.1.1]heptane-6-carboxamide], for which the IC50 is, setting by setting: under setting [1], 0.2 µM; under setting [2], 0.0001 to 1 µM.
`Cc1ccc(NC(=O)[C@H]2C[C@@H]2C(F)(F)F)cc1-c1ccccn1` (racemic) [Example 128, trans-N-(4-methyl-3-pyridin-2-ylphenyl)-2-(trifluoromethyl)cyclopropane-1-carboxamide]: the IC50 reads like this: under setting [3], 1 to 10 µM; under setting [1], 4.3 µM.
Consider `Cc1ccc(NC(=O)N2C3C[C@@H](C)C[C@H]2C3)cc1-c1cncc(F)n1` [Example 231, cis-N-[3-(6-fluoropyrazin-2-yl)-4-methylphenyl]-3-methyl-6-azabicyclo[3.1.1]heptane-6-carboxamide], for which the IC50 is 0.08 µM under setting [1] and 0.0001 to 1 µM under setting [2].
Take `Cc1ccc(NC(=O)OCC2CC2)cc1-c1ncccn1` [Example 328]: the IC50 is > 10 µM under setting [3] and 31 µM under setting [1].
On the same counts, the results for `Cc1ccc(NC(=O)C2CCC(=O)N2c2ccccn2)cc1-c1ncc(F)cn1` (racemic) [Example 278, N-[3-(5-fluoropyrimidin-2-yl)-4-methylphenyl]-5-oxo-1-pyridin-2-ylpyrrolidine-2-carboxamide] are > 10 µM and 17 µM.
Turning to `CCOC(C)[C@@]12CC(C[C@@H](C)C1)N2C(=O)Nc1ccc(C)c(-c2ncc(F)cn2)c1` (single isomer, unassigned) [Example 186], it took 0.2 µM to reach half-maximal inhibition under setting [1] (IC50) and the IC50 under setting [2] was in the range of 0.0001 to 1 µM.
Regarding `Cc1ccc(NC(=O)N(C)C(c2ncccn2)C2CCC2)cc1-c1ncc(F)cn1` (racemic) [Example 214, 1-(cyclobutyl(pyrimidin-2-yl)methyl)-3-(3-(5-fluoropyrimidin-2-yl)-4-methylphenyl)-1-methylurea], the IC50 reads like this: under setting [3], 1 to 10 µM; under setting [1], 3.9 µM.
Take `Cc1ccc(NC(=O)N2CC3CCC2c2ccccc23)cc1-c1ccccn1` (stereo not shown) [Example 16, N-(4-methyl-3-(pyridin-2-yl)phenyl)-1,2,3,4-tetrahydro-1,4-(epiminomethano)naphthalene-10-carboxamide]: the half-inhibitory concentration (IC50) was 1 to 10 µM under setting [3] and 1.1 µM under setting [1].
For the compound `Cc1ccc(NC(=O)N2C3CCCC2C3)cc1-c1nccc(C#N)n1` [Example 67, N-(3-(4-cyanopyrimidin-2-yl)-4-methyl-phenyl)-6-azabicyclo[3.1.1]heptane-6-carboxamide], the IC50 by setting is: under setting [1], 0.6 µM; under setting [2], 0.0001 to 1 µM.
On to `COCC12CC(C)CC(C1)N2C(=O)Nc1cc(-c2ncccn2)c(C)cc1F` (single isomer, unassigned) [Example 200, trans-N-(2-fluoro-4-methyl-5-pyrimidin-2-ylphenyl)-1-(methoxymethyl)-3-methyl-6-azabicyclo[3.1.1]heptane-6-carboxamide], for which the IC50 by setting is: under setting [1], 0.1 µM; under setting [2], 0.0001 to 1 µM.

By IC50 is commonly meant the concentration that inhibits the measured activity by half.
